According to patent US20110098288A1, “SULFONAMIDES AS ZAP-70 INHIBITORS” (priority 2008, published 2011):
Structures can show the parent of a compound that is named as a salt.

target: T1, ZAP-70 (Homo sapiens, UniProt P43403); assay: ZAP-70 kinobeads assay; format: binding; conditions: competition with immobilized aminopyrido-pyrimidine ligand 24 in cell lysate; ZAP-70 detected by dot blot
T1 construct: endogenous in cells; host or cells: cell lysate
T1 sequence (P43403 1-619): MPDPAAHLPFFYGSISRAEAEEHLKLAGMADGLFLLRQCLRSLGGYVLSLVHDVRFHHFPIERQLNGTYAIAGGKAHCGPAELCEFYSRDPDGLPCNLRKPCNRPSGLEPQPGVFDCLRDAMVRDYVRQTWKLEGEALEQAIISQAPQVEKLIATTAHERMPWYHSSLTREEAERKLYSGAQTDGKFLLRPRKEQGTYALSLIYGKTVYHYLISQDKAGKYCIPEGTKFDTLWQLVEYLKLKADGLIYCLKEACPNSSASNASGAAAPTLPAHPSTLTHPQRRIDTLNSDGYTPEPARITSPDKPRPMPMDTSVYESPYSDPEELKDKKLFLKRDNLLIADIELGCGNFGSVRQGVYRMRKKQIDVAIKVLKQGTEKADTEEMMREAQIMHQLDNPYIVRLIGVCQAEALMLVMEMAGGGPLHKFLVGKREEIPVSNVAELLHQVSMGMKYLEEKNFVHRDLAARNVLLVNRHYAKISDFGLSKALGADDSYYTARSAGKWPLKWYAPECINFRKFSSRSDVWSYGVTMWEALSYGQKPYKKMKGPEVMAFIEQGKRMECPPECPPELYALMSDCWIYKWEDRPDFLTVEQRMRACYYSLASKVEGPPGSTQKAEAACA
Description: The compounds of the present invention as described in the previous examples can be tested in the ZAP-70 kinobeads assay as described (EP-A 1862802 and WO-A 2007/137867). Briefly, test compounds (at various concentrations) and the affinity matrix with the immobilized aminopyrido-pyrimidine ligand 24 are added to cell lysate aliquots and allowed to bind to the proteins in the lysate sample. After the incubation time the beads with captured proteins are separated from the lysate. Bound proteins are then eluted and the presence ZAP-70 is detected and quantified using a specific antibody in a dot blot procedure and the Odyssey infrared detection system. Conventionally, ZAP-70 kinase activity can be measured using purified or recombinant enzyme in a solution-based assay with protein or peptide substrates (Isakov et al., 1996, J. Biol. Chem. 271(26), 15753-15761; Moffat et al., 1999, Bioorg. Med. Chem. Letters 9, 3351-3356).

IC50, 1000 to 10000 nM:
CCCOc1cccc(Nc2ncc(F)c(Nc3cccc(C)c3NS(C)(=O)=O)n2)c1 [Example 122, N-(2-(5-fluoro-2-(3-propoxyphenylamino)pyrimidin-4-ylamino)-6-methylphenyl)methanesulfonamide]
COc1cc(Nc2ncc([N+](=O)[O-])c(Nc3ccccc3NS(C)(=O)=O)n2)cc(OC)c1OC [Example 68, N-(2-(5-nitro-2-(3,4,5-trimethoxyphenylamino)pyrimidin-4-ylamino)phenyl)methanesulfonamide]
CS(=O)(=O)Nc1ccccc1Nc1nc(Nc2ccc(C#N)cc2)ncc1Cl [Example 204, N-(2-(5-chloro-2-(4-cyanophenylamino)pyrimidin-4-ylamino)phenyl)methanesulfonamide]
CCN(CC)C(=O)c1cccc(Nc2ncc(F)c(Nc3ccccc3NS(C)(=O)=O)n2)c1 [Example 81, N,N-diethyl-3-(5-fluoro-4-(2-(methylsulfonamido)phenylamino)pyrimidin-2-ylamino)benzamide]
COc1ccc(Nc2ncc(F)c(Nc3ccccc3N(C)S(C)(=O)=O)n2)cc1 [Example 108, N-(2-(5-fluoro-2-(4-methoxyphenylamino)pyrimidin-4-ylamino)phenyl)-N-methylmethanesulfonamide]
COc1cc(Nc2ncc(F)c(Nc3ccccc3NS(=O)(=O)c3ccccc3)n2)cc(OC)c1OC [Example 47, N-(2-(5-fluoro-2-(3,4,5-trimethoxyphenylamino)pyrimidin-4-ylamino)phenyl)benzenesulfonamide]
CS(=O)(=O)Nc1ccccc1Nc1nc(Nc2cccc(F)c2)ncc1F [Example 6, N-(2-(5-fluoro-2-(3-fluorophenylamino)pyrimidin-4-ylamino)phenyl)methanesulfonamide]
COc1cc(Nc2ncc(F)c(Nc3cccc(NS(=O)(=O)CC(F)(F)F)c3)n2)cc(OC)c1OC [Example 60, 2,2,2-trifluoro-N-(3-(5-fluoro-2-(3,4,5-trimethoxyphenylamino)pyrimidin-4-ylamino)phenyl)ethanesulfonamide]
CS(=O)(=O)Nc1ccccc1Nc1nc(Nc2cccc(C(=O)NC3CC3)c2)ncc1F [Example 83, N-cyclopropyl-3-(5-fluoro-4-(2-(methylsulfonamido)phenylamino)pyrimidin-2-ylamino)benzamide]
COc1cc(Nc2ncc(F)c(Nc3cc(F)c(F)cc3NS(C)(=O)=O)n2)cc(OC)c1OC [Example 174, N-(4,5-difluoro-2-(5-fluoro-2-(3,4,5-trimethoxyphenylamino)pyrimidin-4-ylamino)phenyl)methanesulfonamide]
Cc1nc(-c2ccc(Nc3ncc(F)c(Nc4ccccc4NS(C)(=O)=O)n3)cc2)cs1 [Example 192, N-(2-(5-fluoro-2-(4-(2-methylthiazol-4-yl)phenylamino)pyrimidin-4-ylamino)phenyl)methanesulfonamide]
COc1cc(Nc2ncc(F)c(Nc3ccccc3NS(=O)(=O)CCN(C)C)n2)cc(OC)c1OC [Example 61, 2-(Dimethylamino)-N-(2-(5-fluoro-2-(3,4,5-trimethoxyphenylamino)pyrimidin-4-ylamino)phenyl)ethanesulfonamide]
CS(=O)(=O)Nc1ccccc1Nc1nc(Nc2cccc(Cl)c2)ncc1F [Example 12, N-(2-(2-(3-chlorophenylamino)-5-fluoropyrimidin-4-ylamino)phenyl)methanesulfonamide]
CS(=O)(=O)Nc1ccccc1Nc1nc(Nc2ccc(OC(F)F)cc2)ncc1F [Example 27, N-(2-(2-(4-(difluoromethoxy)phenylamino)-5-fluoropyrimidin-4-ylamino)phenyl)methanesulfonamide]
CSc1cccc(Nc2ncc(F)c(Nc3ccccc3NS(C)(=O)=O)n2)c1 [Example 15, N-(2-(5-fluoro-2-(3-(methylthio)phenylamino)pyrimidin-4-ylamino)phenyl)methanesulfonamide]

IC50, 100 to 1000 nM:
CS(=O)(=O)Nc1ccccc1Nc1nc(Nc2cccc(-n3cccn3)c2)ncc1Cl [Example 206, N-(2-(2-(3-(1H-pyrazol-1-yl)phenylamino)-5-chloropyrimidin-4-ylamino)phenyl)methanesulfonamide]
CC(C)OC(=O)COc1ccc(Nc2ncc(Cl)c(Nc3ccccc3NS(C)(=O)=O)n2)cc1 [Example 143, Isopropyl 2-(4-(5-chloro-4-(2-(methylsulfonamido)phenylamino)pyrimidin-2-ylamino)-phenoxy)acetate hydrochloride]
COc1cc(Nc2ncc(F)c(Nc3ccc(OCCCN4CCCCC4)cc3NS(C)(=O)=O)n2)cc(OC)c1OC [Example 185, N-(2-(5-fluoro-2-(3,4,5-trimethoxyphenylamino)pyrimidin-4-ylamino)-5-(3-(piperidin-1-yl)propoxy)phenyl)methanesulfonamide]
COc1cc(Nc2ncc(F)c(Nc3cccc(C)c3N(C)S(C)(=O)=O)n2)cc(OC)c1OC [Example 181, N-(2-(5-fluoro-2-(3,4,5-trimethoxyphenylamino)pyrimidin-4-ylamino)-6-methylphenyl)-N-methylmethanesulfonamide]
COc1ccc(Nc2nc(Nc3cc(OC)c(OC)c(OC)c3)ncc2Cl)c(NS(C)(=O)=O)c1F [Example 187, N-(6-(5-chloro-2-(3,4,5-trimethoxyphenylamino)pyrimidin-4-ylamino)-2-fluoro-3-methoxyphenyl)methanesulfonamide]
CS(=O)(=O)Nc1ccccc1Nc1nc(Nc2cccc(C(=O)N3CCCC3)c2)ncc1F [Example 82, N-(2-(5-fluoro-2-(3-(pyrrolidine-1-carbonyl)phenylamino)pyrimidin-4-ylamino)phenyl)methanesulfonamide]
CS(=O)(=O)Nc1ccccc1Nc1nc(Nc2cccc(OCC(=O)O)c2)ncc1Cl [Example 149, 2-(3-(5-chloro-4-(2-(methylsulfonamido)phenylamino)pyrimidin-2-ylamino)phenoxy)acetic acid hydrochloride]
Cc1n[nH]c(-c2cccc(Nc3ncc(Cl)c(Nc4ccccc4NS(C)(=O)=O)n3)c2)n1 [Example 213, N-(2-(5-chloro-2-(3-(3-methyl-1H-1,2,4-triazol-5-yl)phenylamino)pyrimidin-4-ylamino)phenyl)methanesulfonamide]
CS(=O)(=O)Nc1ccccc1Nc1nc(Nc2cccc(-n3cncn3)c2)ncc1Cl [Example 211, N-(2-(2-(3-(1H-1,2,4-triazol-1-yl)phenylamino)-5-chloropyrimidin-4-ylamino)phenyl)methanesulfonamide]
CN(c1ccccc1Nc1nc(Nc2ccc(OCCN3CCCCC3)cc2)ncc1F)S(C)(=O)=O [Example 110, N-(2-(5-fluoro-2-(4-(2-(piperidin-1-yl)ethoxy)phenylamino)pyrimidin-4-ylamino)phenyl)-N-methylmethanesulfonamide]
COc1cc(Nc2ncc(F)c(Nc3ccccc3NS(C)(=O)=O)n2)cc(OCCN2CCCC2)c1OC [Example 74, N-(2-(2-(3,4-dimethoxy-5-(2-(pyrrolidin-1-yl)ethoxy)phenylamino)-5-fluoropyrimidin-4-ylamino)phenyl)methanesulfonamide]
COc1cc(Nc2ncc(F)c(Nc3ccccc3N(C)S(C)(=O)=O)n2)cc(OC)c1OC [Example 71, N-(2-(5-fluoro-2-(3,4,5-trimethoxyphenylamino)pyrimidin-4-ylamino)phenyl)-N-methylmethanesulfonamide]
COc1cc(Nc2ncc(F)c(Nc3cccc(C)c3NS(C)(=O)=O)n2)cc(OCC2CC2)c1OC [Example 120, N-(2-(2-(3-(cyclopropylmethoxy)-4,5-dimethoxyphenylamino)-5-fluoropyrimidin-4-ylamino)-6-methylphenyl)methanesulfonamide]
